Values of other authors, collected in patent publication US11331258B2, “Method for dyeing keratinous material, comprising the use of an organosilicon compound, an oligoalkylsiloxane and a dyeing compound” (Henkel AG & Co. KGaA, priority 2019, dated 2022).
Where two headings read alike, the source gives them in different places.

Row | Structure (SMILES) | solubility in water (25° C.) | solubility in water (at about 25° C.)
1 | CCN(Cc1cccc(S(=O)(=O)[O-])c1)c1ccc(C(=C2C=CC(=[N+](CC)Cc3cccc(S(=O)(=O)[O-])c3)C=C2)c2ccccc2S(=O)(=O)[O-])cc1.[Na+].[Na+] [Acid Blue 9] | more than 20 % by weight | 
2 | O=S(=O)([O-])c1ccc(N=Nc2c(O)ccc3ccccc23)cc1.[Na+] [Acid Orange 7, sodium salt of 4-[(2-hydroxy-1-naphthyl)azo]benzene sulphonate] | more than 7 g/L | 
3 | Nc1cc(S(=O)(=O)[O-])cc2cc(S(=O)(=O)[O-])c(N=Nc3ccccc3)c(O)c12.[Na+].[Na+] [Acid Red 33, diantrium salt of 5-amino-4-hydroxy-3-(phenylazo)-naphthalene-2,7-disulphonate] | about 2.5 g/L | 
4 | O=C([O-])C1=NN(c2ccc(S(=O)(=O)[O-])cc2)C(=O)C1N=Nc1ccc(S(=O)(=O)[O-])cc1.[Na+].[Na+].[Na+] (stereo not shown) [Acid Yellow 23, trisodium salt of 4,5-dihydro-5-oxo-1-(4-sulfophenyl)-4-((4-sulfophenyl)azo)-1H-pyrazole-3-carboxylic acid] |  | highly soluble
